Patent publication US20220031636A1, “COMPOUNDS THAT ENHANCE THE ACTION OF METFORMIN” (SOCIETE DES PRODUiTS NESTLE S.A., priority 2018, published 2022)
Entries after “also recorded” stand apart in the source; their conditions may differ.

What was measured:
[1] = target: T1, bacterially-expressed AMPKα2β1γ1 (Homo sapiens, UniProt P54619+P54646+Q9Y478); experiment: HTRF-KinEASE kinase assay of phosphorylated AMPK heterotrimer with AMP and fixed concentrations of Lusianthridin; assay type: biochemical
T1 construct: His; made in house
T1 sequence (P54646 whole entry): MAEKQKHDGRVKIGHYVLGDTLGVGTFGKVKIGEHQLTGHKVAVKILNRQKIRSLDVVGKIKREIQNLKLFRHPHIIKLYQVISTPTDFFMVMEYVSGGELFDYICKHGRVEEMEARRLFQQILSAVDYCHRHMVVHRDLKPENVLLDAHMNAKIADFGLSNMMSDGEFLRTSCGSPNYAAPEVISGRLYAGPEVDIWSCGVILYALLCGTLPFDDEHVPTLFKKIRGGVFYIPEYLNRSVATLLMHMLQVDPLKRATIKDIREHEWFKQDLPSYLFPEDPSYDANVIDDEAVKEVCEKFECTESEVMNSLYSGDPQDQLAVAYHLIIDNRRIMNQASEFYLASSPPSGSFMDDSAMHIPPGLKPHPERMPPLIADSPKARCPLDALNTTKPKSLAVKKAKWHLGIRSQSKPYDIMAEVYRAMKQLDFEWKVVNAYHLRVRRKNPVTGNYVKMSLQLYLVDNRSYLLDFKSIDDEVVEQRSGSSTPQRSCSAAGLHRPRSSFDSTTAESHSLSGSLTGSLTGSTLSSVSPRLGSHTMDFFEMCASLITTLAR
T1 sequence (Q9Y478 whole entry): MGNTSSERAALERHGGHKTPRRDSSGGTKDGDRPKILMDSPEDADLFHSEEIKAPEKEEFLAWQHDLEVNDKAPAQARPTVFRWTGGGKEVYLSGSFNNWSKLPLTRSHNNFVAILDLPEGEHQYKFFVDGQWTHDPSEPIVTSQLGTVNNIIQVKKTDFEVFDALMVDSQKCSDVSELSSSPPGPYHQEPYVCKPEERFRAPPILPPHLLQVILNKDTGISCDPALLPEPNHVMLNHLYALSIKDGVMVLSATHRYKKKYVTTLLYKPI
T1 sequence (P54619 whole entry): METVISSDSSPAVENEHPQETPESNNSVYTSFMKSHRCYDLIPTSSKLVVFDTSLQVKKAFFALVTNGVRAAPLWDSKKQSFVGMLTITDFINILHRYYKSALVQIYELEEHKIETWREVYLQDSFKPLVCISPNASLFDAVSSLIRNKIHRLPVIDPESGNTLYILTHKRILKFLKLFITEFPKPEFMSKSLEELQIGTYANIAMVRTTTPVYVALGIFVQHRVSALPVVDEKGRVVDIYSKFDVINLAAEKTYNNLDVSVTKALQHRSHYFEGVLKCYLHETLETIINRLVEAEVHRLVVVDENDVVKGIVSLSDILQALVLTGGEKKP
Procedure: The AMPK heterotrimers were expressed in bacteria and purified through the His-α subunit by nickel purification, further purified through gel filtration and finally phosphorylated by incubation with CaMKKβ. This phosphorylated AMPK was incubated with varying concentrations of AMP for 30 mins using substrate and reagents from the HTRF-KinEASE Cisbio assay kit (STK S1 Kit). Phosphorylation of the substrate was measured by incubating with donor and acceptor antibodies for 2 h at room temperature as per the manufacturer's protocol (and Coulerie et al., (2016), see below) and phosphorylated peptide detected by performing HTRF.

primary hepatocytes = experiment: Lipogenesis in primary hepatocytes ([1-14C]-acetate incorporation into fatty acids); assay type: cell-based; conditions: low/non-saturating concentration, 1 h at 37 C
Procedure: Hepatocyte isolation: The liver was first perfused with 50 ml perfusion buffer (Krebs-Hepes buffer with […] EDTA), followed with 50 ml collagenase A buffer (Krebs-Hepes buffer with 5 mM CaCl2) and 0.5 mg/ml collagenase). After passage through a 100 μm mesh, the cell solution was washed several times with cold media and finally the cell culture pellet was resuspended in culture medium (medium 199 (M199)+GlutaMAX, 100 U/ml penicillin G, and 100 μg/ml streptomycin, 0.1% (wt/vol) BSA, 10% FCS, 10 nM insulin, 200 nM triiodothyronine and 500 nM dexamethasone). Hepatocytes were left to attach (3-4 h) and cultured overnight in M199 supplemented with antibiotics and 100 nM dexamethasone. Cells were used for experiments the following morning.
For lipogenesis measurements in primary hepatocytes, cells were seeded at 600 K cells per well in a 6-well plate overnight. Media was replaced with fresh M199 media alone for 2 hours prior to incubation with varying concentrations of Lusianthridin or compound 1 for 1 h at 37 C, in the presence of [1-^14C]-acetate. The incorporation of [^14C] into fatty acids was determined in the lower organic layer after separation from the aqueous phase.
Lipogenesis is controlled by the AMPK substrate ACC, and phosphorylation and inhibition of ACC by AMPK, leads to a decrease in lipogenesis. Lipogenesis was measured in primary hepatocytes by determining the incorporation of ^14C-labelled acetate into fatty acids.
Lipogenesis was monitored in the presence or absence of a low/non-saturating concentration of Lusianthridin or metformin for 1 h at 37 C. Furthermore, cells were incubated in the presence of both of these compounds.

| AMPK activity (HTRF 665 nm/620 nm ratio) ([1]; AMP alone, varying concentrations, 30 mins) | Compound | inhibition of lipogenesis, compound alone (% lipogenesis compared to control untreated cells) (primary hepatocytes) | activation of AMPK in combination with AMP ([1]; fixed concentrations of Lusianthridin plus varying AMP) | inhibition of lipogenesis, compound alone (% lipogenesis compared to control untreated cells) (primary hepatocytes; listed as metformin) |
| --- | --- | --- | --- | --- |
| dose-dependent increase in AMPK activity | Nc1ncnc2c1ncn2[C@@H]1O[C@H](COP(=O)(O)O)[C@@H](O)[C@H]1O [AMP, reference compound] | – | – | – |
| – | COc1cc(O)c2c(c1)CCc1cc(O)ccc1-2 [Lusianthridin, 7-Methoxy-9,10-dihydrophenanthrene-2,5-diol] | inhibition of lipogenesis; also recorded: able to inhibit lipogenesis | additive activation of AMPK; also recorded: Additive Effect on AMP Activation | – |
| – | CN(C)C(=N)N=C(N)N [Metformin] | inhibition of lipogenesis | – | able to inhibit lipogenesis |
